Test results: patent US20190381127A1, “COMBINATION THERAPY WITH A6, CHEMOTHERAPEUTIC AGENTS, RADIATION THERAPY, OR A COMBINATION THEREOF FOR THE TREATMENT OF CANCER” (Splash Pharmaceuticals, Inc., priority 2016, published 2019)

Legend:
[1] = tested on: HEY/C2 (DDP resistant) cells; assay: CCK-8 cytotoxicity of DDP/PTX with or without A6; format: cell-based; settings: 72 hours
Method: The cells were plated in 96-well plates as described and incubated overnight. […] The CCK-8 assay described herein was performed to access cytotoxicity of DDP/PTX.

U87MG human glioma cells [2] = assay: Subcutaneous glioma xenograft; format: in vivo, BALB/c (nu/nu) mice
Method: (§1) Glioblastoma: In animal models of glioblastoma, U87MG human glioma cells were implanted subcutaneously or intracranially in BALB/c (nu/nu) mice and the animals were divided into different treatment groups. […] In this study the effects of cisplatin were also examined.

IGROV-1/CP cells = assay: CCK-8 cytotoxicity, A6 plus DDP; format: cell-based, human
Method: Study Conditions. Drugs: […] Drug exposure time: 1 hour; Cell line: IGROV-1 and its DDP-resistant subline IGROV-1/CP; Media: RPMI 1640 plus 10% FBS containing 1 mM penicillin/streptomycin; Cytotoxicity Assays: CCK-8 (Cell Counting Kit 8—Dojindo Molecular Technologies). Tissue culture plates containing 96-well plates were seeded with 4000 cells in 100 μl of media per well. The wells on rows A-D were seeded with IGROV-1 cells, while the wells on rows E-H were seeded with IGROV-1/CP cells. […] After 1 h, increasing concentrations of DDP were added to triplicate wells in […] medium. […] The cells were then allowed to grow for 96 h following which the plates were assayed for relative cell growth with the CCK-8 assay. CCK-8 assay. […] of CCK-8 stain was added to each well and the plate was incubated at 37° C. incubator for 4 h. The plate was read with a microplate reader at a wavelength of 450 nm. (See FIGS. 7A-7D and FIG. 8). The assay was performed using triplicate wells for each DDP concentration. The data in the tables below is the optical density in the well which is a function of the number of live cells remaining at the end of the 96 h growth period.

U87MG human glioma cells [3] = assay: Intracranial glioma xenograft; format: in vivo, BALB/c (nu/nu) mice
Method: as §1

A2780/CP cells = assay: CCK-8 cytotoxicity, A6 plus DDP; format: cell-based, human
Method: Study Conditions. Drugs: […] Drug exposure time: 1 hour; Cell line: […] Media: RPMI 1640 plus 10% FBS containing 1 mM penicillin/streptomycin; Cytotoxicity Assays: CCK-8 (Cell Counting Kit 8-Dojindo Molecular Technologies). Tissue culture plates containing 96-well plates were seeded with 4000 cells in 100 μl of media per well. The wells on rows A-[…] cells, while the wells on rows E-[…]/CP cells. […] After 1 h, increasing concentrations of DDP were added to triplicate wells in 100 μl medium. […] The cells were then allowed to grow for 96 h following which the plates were assayed for relative cell growth with the CCK-8 assay. CCK-8 assay. Five μl of CCK-8 stain was added to each well and the plate was incubated at 37° C. incubator for 4 h. The plate was read with a microplate reader at a wavelength of 450 nm. (See FIGS. 5A-5D and FIG. 6). The assay was performed using triplicate wells for each DDP concentration. The data in the tables below is the optical density in the well which is a function of the number of live cells remaining at the end of the 96 h growth period.

[4] = biological target: T1, CD44 on B16-F10 melanoma cells (UniProt P15379 23-778); assay: cell-based or functional assay
T1 sequence (looked up): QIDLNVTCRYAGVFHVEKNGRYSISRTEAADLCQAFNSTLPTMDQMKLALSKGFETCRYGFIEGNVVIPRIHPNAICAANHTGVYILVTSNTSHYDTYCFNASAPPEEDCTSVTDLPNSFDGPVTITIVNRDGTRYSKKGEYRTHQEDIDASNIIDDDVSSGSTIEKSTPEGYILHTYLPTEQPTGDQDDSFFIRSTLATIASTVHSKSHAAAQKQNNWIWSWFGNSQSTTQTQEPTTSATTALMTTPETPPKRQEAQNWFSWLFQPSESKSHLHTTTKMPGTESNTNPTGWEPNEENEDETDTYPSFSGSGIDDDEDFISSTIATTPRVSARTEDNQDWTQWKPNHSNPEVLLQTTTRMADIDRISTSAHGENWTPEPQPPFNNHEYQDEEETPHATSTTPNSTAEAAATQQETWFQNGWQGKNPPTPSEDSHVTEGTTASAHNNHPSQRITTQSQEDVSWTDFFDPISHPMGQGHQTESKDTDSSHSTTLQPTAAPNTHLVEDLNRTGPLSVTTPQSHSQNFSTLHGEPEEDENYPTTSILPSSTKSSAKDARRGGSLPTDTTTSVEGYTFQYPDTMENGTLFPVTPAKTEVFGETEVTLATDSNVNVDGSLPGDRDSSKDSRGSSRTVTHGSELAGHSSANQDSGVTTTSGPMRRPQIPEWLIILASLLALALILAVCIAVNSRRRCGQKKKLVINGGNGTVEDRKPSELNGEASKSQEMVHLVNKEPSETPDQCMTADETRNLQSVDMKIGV

For `CC(=O)O[C@H]1C(=O)[C@@]2(C)[C@H]([C@H](OC(=O)c3ccccc3)[C@]3(O)C[C@H](OC(=O)[C@H](O)[C@@H](NC(=O)c4ccccc4)c4ccccc4)C(C)=C1C3(C)C)[C@]1(OC(C)=O)CO[C@@H]1C[C@@H]2O` [paclitaxel, reference compound], the “resistance of HEY/C2 cells compared to HEY cells” value [1] was “resisted to paclitaxel”.

`N.N.[Cl][Pt][Cl]` [cisplatin, reference compound] was tested, and the “IC50 in HEY/C2 cells compared to HEY cells” value [1] was “about 7 fold”, the “inhibition of subcutaneous tumor growth” value (U87MG human glioma cells [2]) was 53% and the “resistance of the cells to DDP” value (IGROV-1/CP cells) was “appeared not to be resistant”. The “inhibition of tumor growth” value (U87MG human glioma cells [3]) was 82% and the “resistance of the cells to DDP” value (A2780/CP cells) was “not very resistant”.

With Ac-KPSSPPEE-NH2 [A6 peptide (Ac-KPSSPPEE-NH2)] the “IC50 for A6 inhibition of chemotaxis in B16-F10 cells” value [4] was 29 nM.
